Test results as given in patent US20140005163A1 (NOVARTIS AG, priority 2010, published 2014).

Columns and labels:
Assay type in all cases: cell-based
[1] = tested on: PKB Ser473 phosphorylation in Rat1-myr-HA-p110 beta cells; experiment: Reverse protein array assay, PKB Ser473 phosphorylation in Rat1-myr-p110 beta cells; conditions: 0.5 h, pAkt Ser473, 30 minutes incubation, read-out: p-PKB IC50
Outline: (§1)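 Lysates were arrayed at four dilutions, and phospho-PKB Ser473 was quantified by relative fluorescence signal. They came from Rat1-myr-HA-p110 alpha, beta or delta cells exposed for 30 min at 37 °C to an 8-point compound series with 0.2% DMSO constant.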

[2] = tested on: PKB Ser473 phosphorylation in Rat1-myr-HA-p110 delta cells; experiment: Reverse protein array assay, PKB Ser473 phosphorylation in Rat1-myr-p110 delta cells; conditions: read-out: p-PKB IC50
Outline: as §1

[3] = tested on: PKB Ser473 phosphorylation in Rat1-myr-HA-p110 alpha cells; experiment: Reverse protein array assay, PKB Ser473 phosphorylation in Rat1-myr-p110 alpha cells; conditions: 0.5 h, pAkt Ser473, 30 minutes compound incubation, read-out: p-PKB IC50
Outline: as §1

[4] = tested on: S6 Ribosomal Protein phosphorylation Ser235/236 in TSC1 null mouse embryo fibroblast (MEF) cells; experiment: Reverse protein array assay, S6 Ribosomal Protein phosphorylation Ser235/236 in TSC1 null MEF cells; conditions: 1 h, pS6 ribosomal protein Ser235/236, 60 minutes incubation, read-out: p-S6 IC50
Outline: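 TSC1−/− MEFs, seeded and held ≥20 h at 37 °C/5% CO2, were exposed to 8-step serial compound dilutions (0.02% DMSO final; DMSO vehicle control) for 60 min at 37 °C. Cells were then lysed on ice for 10 min and lysates spotted onto reverse protein array chips.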

SMILES	IC50 [1] [nM]	IC50 [2] [nM]	IC50 [3] [nM]	IC50 [4] [nM]
Cc1nn(C)cc1-n1c(=O)n(C)c2cnc3ccc(-c4cccc(OC(C)C)c4F)cc3c21 [Example 83, 1-(1,3-Dimethyl-1H-pyrazol-4-yl)-8-(2-fluoro-3-isopropoxy-phenyl)-3-methyl-1,3-dihydro-imidazo[4,5-c]quinolin-2-one]	353	508	197	38
COCCOc1cc(-c2ccc3ncc4c(c3c2)n(-c2cn(C)nc2C)c(=O)n4C)cnc1C [Example 86.2, 1-(1,3-Dimethyl-1H-pyrazol-4-yl)-8-[5-(2-methoxy-ethoxy)-6-methyl-pyridin-3-yl]-3-methyl-1,3-dihydro-imidazo[4,5-c]quinolin-2-one]	53	57	33	5
COc1ccc(-c2ccc3ncc4c(c3c2)n(-c2cnn(C)c2C)c(=O)n4C)cn1 [Example 2.9, 1-(1,5-Dimethyl-1H-pyrazol-4-yl)-8-(6-methoxy-pyridin-3-yl)-3-methyl-1,3-dihydro-imidazo[4,5-c]quinolin-2-one]	141	165	44	27
CCOc1ccc(-c2ccc3ncc4c(c3c2)n(-c2cn(C)nc2Cl)c(=O)n4C)cn1 [Example 3.8, 1-(3-Chloro-1-methyl-1H-pyrazol-4-yl)-8-(6-ethoxy-pyridin-3-yl)-3-methyl-1,3-dihydro-imidazo[4,5-c]quinolin-2-one]	23	37	15	11
COCCNC(=O)c1cc(-c2ccc3ncc4c(c3c2)n(-c2cn(C)nc2C)c(=O)n4C)cnc1N [Example 226, 2-Amino-5-[1-(1,3-dimethyl-1H-pyrazol-4-yl)-3-methyl-2-oxo-2,3-dihydro-1H-imidazo[4,5-c]quinolin-8-yl]-N-(2-methoxy-ethyl)-nicotinamide]	457	433	–	7
Cc1nn(C)cc1-n1c(=O)n(C)c2cnc3ccc(-c4cnc5[nH]ccc5c4)cc3c21 [Example 36, 1-(1,3-dimethyl-1H-pyrazol-4-yl)-3-methyl-8-(1H-pyrrolo[2,3-b]pyridin-5-yl)-1,3-dihydro-imidazo[4,5-c]quinolin-2-one]	6	8	5	< 0.5
Cc1nn(CC(=O)N(C)C)c(C)c1-n1c(=O)n(C)c2cnc3ccc(-c4cnc(N)c(C(F)(F)F)c4)cc3c21 [Example 25.2, 2-{4-[8-(6-Amino-5-trifluoromethyl-pyridin-3-yl)-3-methyl-2-oxo-2,3-dihydro-imidazo[4,5-c]quinolin-1-yl]-3,5-dimethyl-pyrazol-1-yl}-N,N-dimethyl-acetamide]	–	247	90	6

The next lines start with results.

IC50 [1] [nM]	IC50 [2] [nM]	IC50 [3] [nM]	SMILES	IC50 [4] [nM]
148	297	168	Cc1nn(C)cc1-n1c(=O)n(C)c2cnc3ccc(-c4cncc(S(C)(=O)=O)c4)cc3c21 [Example 22, 1-(1,3-Dimethyl-1H-pyrazol-4-yl)-8-(5-methanesulfonyl-pyridin-3-yl)-3-methyl-1,3-dihydro-imidazo[4,5-c]quinolin-2-one]	27
73	69	24	Cc1nn(C(C)C)cc1-n1c(=O)n(C)c2cnc3ccc(-c4ccc(C(N)=O)nc4)cc3c21 [Example 112, 5-[1-(1-Isopropyl-3-methyl-1H-pyrazol-4-yl)-3-methyl-2-oxo-2,3-dihydro-1H-imidazo[4,5-c]quinolin-8-yl]-pyridine-2-carboxylic acid amide]	60
119	24	20	CNc1ncc(-c2ccc3ncc4c(c3c2)n(-c2cn(C(C)C)nc2C)c(=O)n4C)cc1Cl [Example 146.3, 8-(5-Chloro-6-methylamino-pyridin-3-yl)-1-(1-isopropyl-3-methyl-1H-pyrazol-4-yl)-3-methyl-1,3-dihydro-imidazo[4,5-c]quinolin-2-one]	3
106	288	51	CCOc1cccc(-c2ccc3ncc4c(c3c2)n(-c2cn(C)nc2C)c(=O)n4C)c1 [Example 57, 1-(1,3-Dimethyl-1H-pyrazol-4-yl)-8-(3-ethoxy-phenyl)-3-methyl-1,3-dihydro-imidazo[4,5-c]quinolin-2-one]	5
11	19	6	Cc1nn(C)cc1-n1c(=O)n(C)c2cnc3ccc(-c4cnc(N)c(F)c4)cc3c21 [Example 142.2, 8-(6-Amino-5-fluoro-pyridin-3-yl)-1-(1,3-dimethyl-1H-pyrazol-4-yl)-3-methyl-1,3-dihydro-imidazo[4,5-c]quinolin-2-one]	< 0.5
153	202	138	Cc1nn(C)cc1-n1c(=O)n(C)c2cnc3ccc(-c4cc(O)cc(C(F)(F)F)c4)cc3c21 [Example 34, 1-(1,3-Dimethyl-1H-pyrazol-4-yl)-8-(3-hydroxy-5-trifluoromethyl-phenyl)-3-methyl-1,3-dihydro-imidazo[4,5-c]quinolin-2-one]	3.56
428	564	172	CNc1ncc(-c2ccc3ncc4c(c3c2)n(-c2c(C)noc2C)c(=O)n4C)cc1Cl [Example 146.6, 8-(5-Chloro-6-methylamino-pyridin-3-yl)-1-(3,5-dimethyl-isoxazol-4-yl)-3-methyl-1,3-dihydro-imidazo[4,5-c]quinolin-2-one]	278
30	86	17	CCNc1ncc(-c2ccc3ncc4c(c3c2)n(-c2cn(C)nc2C)c(=O)n4C)cc1Cl [Example 147, 8-(5-Chloro-6-ethylamino-pyridin-3-yl)-1-(1,3-dimethyl-1H-pyrazol-4-yl)-3-methyl-1,3-dihydro-imidazo[4,5-c]quinolin-2-one]	5.53
73	59	25	Cc1nn(C)c(C)c1-n1c(=O)n(C)c2cnc3ccc(-c4cnc(N)c(C(F)(F)F)c4)cc3c21 [Example 25.3, 8-(6-Amino-5-trifluoromethyl-pyridin-3-yl)-3-methyl-1-(1,3,5-trimethyl-1H-pyrazol-4-yl)-1,3-dihydro-imidazo[4,5-c]quinolin-2-one]	2
88	95	114	CNc1cc(-c2ccc3ncc4c(c3c2)n(-c2c(C)nn(C)c2C)c(=O)n4C)cnc1CO [Example 158.4, 8-(6-Hydroxymethyl-5-methylamino-pyridin-3-yl)-3-methyl-1-(1,3,5-trimethyl-1H-pyrazol-4-yl)-1,3-dihydro-imidazo[4,5-c]quinolin-2-one]	150
115	157	97	Cc1noc(C)c1-n1c(=O)n(C)c2cnc3ccc(-c4cnc(N)c(C(F)(F)F)c4)cc3c21 [Example 25.5, 8-(6-Amino-5-trifluoromethyl-pyridin-3-yl)-1-(3,5-dimethyl-isoxazol-4-yl)-3-methyl-1,3-dihydro-imidazo[4,5-c]quinolin-2-one]	8
